Biological target: T1, full length G2019 human LRRK2 (Homo sapiens, UniProt Q5S007, R50H)
T1 construct: made in house; host or cells: HEK293 6E cells transduced with BacMam virus (virus generated in Sf9 cells)
Experiment: Full length G2019 human LRRK2 inhibition mass spectrometry assay
Format: biochemical
Conditions: LRRKtide to phospho-LRRKtide conversion, RapidFire MS, 2 mM ATP
Experimental: a. Full Length G2019 Human LRRK2 Inhibition Mass Spectrometry Assay
This assay for Leucine Rich Repeat Kinase 2 (LRRK2) inhibition is based on the direct measurement of the peptide ‘LRRKtide’ (LRRKtide: RLGRDKYKT*LRQIRQ and “*” refers to the site of phosphorylation.) and phosphorylated ‘LRRKtide’ using a high throughput Rapid Fire mass spectrometry assay. Inhibitors are compounds that reduce the conversion of LRRKtide to phospho-LRRKtide.
• 1) Compounds were dissolved in 100% DMSO at a concentration of 10 mM, and 11-point dose response curves generated using a 1 in 4 serial dilution in DMSO. 100 nL of this dilution series was then added to a 384 well, v bottom polypropylene plate (Greiner 781280), excluding columns 6 and 18. 100 nL of DMSO were added to column 6 to serve as the high control, while column 18 served as the low control containing assay buffer in place of the LRRK2 protein. Assay dilution gave a top final assay concentration of test compound of […] • 2) 5 μL of ‘enzyme solution’ containing 2× final assay concentration of purified recombinant Full length Flag-LRRK2 in assay buffer (50 mM Hepes, pH 7.2, 10 mM MgCl2, 150 mM NaCl, 5% glycerol, 0.0025% Triton X-100 and 1 mM DTT) were added to all wells using a Multidrop Combi dispenser (ThermoFisher Scientifiec), giving a final assay concentration of 25 nM LRRK2 enzyme (final concentration may vary depending on specific activity of different enzyme batches). • 3) 5 μL of substrate solution containing 50 μM LRRKtide peptide substrate and […] was added to all wells of the plate using a Multidrop Combi dispenser giving a final assay concentration of 25 μM LRRKtide peptide and 2 mM ATP. Test plates were then incubated for 1 hour at room temperature. (Incubation may vary depending on rate and linearity of reaction with different enzyme batches). • 4) 50 μl of 1% formic acid in laboratory grade water was added to all wells to quench the reaction, and plates were heat-sealed prior to centrifugation at 1348×g for 10 minutes. Test plates were then analysed on an Agilent RapidFire High Throughput solid phase extraction system coupled to AB Sciex API 4000 triple quadropole mass spectrometer with the following setting:
• Sip Height=2 mm, Aspirate=500 ms, Load time=3000 ms, Elution time=3000 ms, Requilibration=500 ms. • Flow rates: pump 1=1.5 mL/min, pump 2 1.25 mL/min pump 3=0.8 mL/min
Mass Spectrometer Settings: • LRRKtide Detection settings: Q1 mass 644.8 Da, Q3 mass 638.8, declustering potential 76 volts, collision energy 37 volts, CXP 34 volts. • Phospho-LRRKtide Detection settings: Q1 mass 671.4 Da, Q3 mass 638.8, Declustering potential 76 volts, Collision energy 37 volts, CXP 34 volts. • A C4 cartridge was used and running buffers were: A (aqueous) 0.1% formic acid in water B (organic) 0.1% formic acid, 80% acetonitrile, 20% water. • Collision gas: 12, Curtain gas: 25, Ion Source gas (1): 60, Ion Source gas (2): 60, Ion Spray Voltage: 5500, Temperature: 600, Interface Heater: ON. • Resolution Q1: low, Resolution Q3: low. • 5) Data were analysed using ActivityBase software (IDBS). A percent conversion from LRRKtide to Phospho-LRRKtide was calculated using the following formula:
% conversion=(Phospho-LRRKtide product peak area/(Phospho-LRRKtide product peak area+LRRKtide substrate peak area))*100 • A logistic 4 parameter curve fit was applied, using the following formula,
[formula] • Where x is the concentration of test sample, y is inhibition (%), a is the minimum, b is the Hill slope, c is the IC50 and d is the maximum. From this, the pIC50 was derived (−log IC50).

T1 sequence (Q5S007 with tags, fused parts or gaps R50H): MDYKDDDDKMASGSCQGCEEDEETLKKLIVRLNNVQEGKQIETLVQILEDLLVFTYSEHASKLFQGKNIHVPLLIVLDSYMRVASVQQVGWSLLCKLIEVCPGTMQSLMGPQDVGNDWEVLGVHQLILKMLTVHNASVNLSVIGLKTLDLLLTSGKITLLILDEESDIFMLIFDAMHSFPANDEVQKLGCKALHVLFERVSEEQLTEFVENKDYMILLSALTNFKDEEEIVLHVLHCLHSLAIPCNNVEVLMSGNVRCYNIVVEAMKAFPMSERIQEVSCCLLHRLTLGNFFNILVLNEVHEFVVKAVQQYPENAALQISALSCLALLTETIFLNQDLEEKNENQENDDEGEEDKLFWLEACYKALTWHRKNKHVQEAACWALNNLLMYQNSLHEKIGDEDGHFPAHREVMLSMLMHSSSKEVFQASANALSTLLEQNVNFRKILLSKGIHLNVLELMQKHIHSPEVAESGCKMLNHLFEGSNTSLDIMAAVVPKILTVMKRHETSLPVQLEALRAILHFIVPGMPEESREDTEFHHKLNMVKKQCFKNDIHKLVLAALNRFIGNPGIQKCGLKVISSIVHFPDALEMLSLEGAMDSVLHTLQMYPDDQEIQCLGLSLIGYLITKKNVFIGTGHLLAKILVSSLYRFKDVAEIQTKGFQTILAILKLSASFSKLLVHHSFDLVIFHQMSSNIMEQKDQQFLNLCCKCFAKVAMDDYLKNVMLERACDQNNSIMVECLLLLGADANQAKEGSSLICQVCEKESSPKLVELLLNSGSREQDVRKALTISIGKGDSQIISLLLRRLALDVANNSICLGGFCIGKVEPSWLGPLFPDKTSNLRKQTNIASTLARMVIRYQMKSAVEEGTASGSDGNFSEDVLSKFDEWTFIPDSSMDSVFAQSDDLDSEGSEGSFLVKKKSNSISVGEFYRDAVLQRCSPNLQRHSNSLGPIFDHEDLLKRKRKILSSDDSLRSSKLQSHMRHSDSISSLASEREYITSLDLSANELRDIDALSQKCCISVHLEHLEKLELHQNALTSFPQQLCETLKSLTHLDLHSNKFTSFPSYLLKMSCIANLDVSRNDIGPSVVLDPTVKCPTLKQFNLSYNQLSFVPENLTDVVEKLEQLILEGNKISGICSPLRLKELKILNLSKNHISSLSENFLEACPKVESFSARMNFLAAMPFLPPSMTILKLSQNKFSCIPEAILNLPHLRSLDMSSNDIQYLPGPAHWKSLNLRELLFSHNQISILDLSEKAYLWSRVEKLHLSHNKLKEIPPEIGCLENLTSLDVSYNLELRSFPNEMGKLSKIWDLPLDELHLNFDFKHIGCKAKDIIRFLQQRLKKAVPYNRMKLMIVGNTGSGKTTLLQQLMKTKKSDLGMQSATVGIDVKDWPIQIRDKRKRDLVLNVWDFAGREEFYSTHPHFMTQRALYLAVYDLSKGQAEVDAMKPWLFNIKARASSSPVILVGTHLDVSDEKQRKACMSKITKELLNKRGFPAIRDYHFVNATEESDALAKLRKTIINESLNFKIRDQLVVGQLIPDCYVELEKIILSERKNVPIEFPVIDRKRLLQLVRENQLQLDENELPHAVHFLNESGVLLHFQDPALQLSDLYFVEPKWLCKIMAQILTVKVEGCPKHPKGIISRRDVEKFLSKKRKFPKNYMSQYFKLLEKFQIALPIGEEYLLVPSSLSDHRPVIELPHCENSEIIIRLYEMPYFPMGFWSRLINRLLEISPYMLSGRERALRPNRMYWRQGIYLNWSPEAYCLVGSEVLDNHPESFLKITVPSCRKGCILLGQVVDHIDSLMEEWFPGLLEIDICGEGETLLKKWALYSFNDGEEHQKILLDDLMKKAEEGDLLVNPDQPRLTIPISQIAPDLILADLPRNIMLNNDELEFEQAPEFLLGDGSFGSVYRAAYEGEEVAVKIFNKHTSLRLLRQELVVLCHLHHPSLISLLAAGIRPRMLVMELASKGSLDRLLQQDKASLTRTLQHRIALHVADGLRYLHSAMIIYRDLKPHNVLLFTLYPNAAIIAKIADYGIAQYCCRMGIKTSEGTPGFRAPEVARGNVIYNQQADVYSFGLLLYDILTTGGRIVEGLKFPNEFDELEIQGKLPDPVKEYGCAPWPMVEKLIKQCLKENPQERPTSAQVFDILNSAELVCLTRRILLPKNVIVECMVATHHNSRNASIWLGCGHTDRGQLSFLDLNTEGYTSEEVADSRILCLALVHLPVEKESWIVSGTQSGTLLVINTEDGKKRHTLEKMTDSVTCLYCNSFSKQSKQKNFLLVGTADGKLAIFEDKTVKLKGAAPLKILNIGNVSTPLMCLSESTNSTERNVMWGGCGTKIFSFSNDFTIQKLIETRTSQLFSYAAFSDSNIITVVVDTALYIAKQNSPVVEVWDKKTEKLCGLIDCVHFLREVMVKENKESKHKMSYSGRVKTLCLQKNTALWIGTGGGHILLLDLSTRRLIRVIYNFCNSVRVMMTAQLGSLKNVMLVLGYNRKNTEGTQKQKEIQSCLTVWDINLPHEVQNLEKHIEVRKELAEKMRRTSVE

Row | Compound | IC50 [µM]
1 | Cc1c2c(nn1CCN1CCOCC1)OCCC(C)Nc1nc(ncc1Cl)N2 (single isomer, unassigned) [E212, 14-Chloro-4,11-dimethyl-5-[2-(morpholin-4-yl)ethyl]-8-oxa-2,5,6,12,16,17-hexaazatricyclo[11.3.1.0^3,7] heptadeca-1(16),3,6,13(17),14-pentaene] | ≤ 10
2 | Cc1c2c(nn1CCN1CCC(F)(F)C1)OCCC(C)Nc1nc(ncc1Cl)N2 (single isomer, unassigned) [E214, 14-Chloro-5-[2-(3,3-difluoropyrrolidin-1-yl)ethyl]-4,11-dimethyl-8-oxa-2,5,6,12,16,17-hexaazatricyclo [11.3.1.0^3,7]heptadeca-1(16),3,6,13(17),14-pentaene] | ≤ 10
3 | Cc1c2c(nn1CCN1CCC(F)C1)OCCC(C)Nc1nc(ncc1Cl)N2 (single isomer, unassigned) [E216, 14-Chloro-5-[2-(3-fluoropyrrolidin-1-yl)ethyl]-4,11-dimethyl-8-oxa-2,5,6,12,16,17-hexaazatricyclo [11.3.1.0^3,7] heptadeca-1(16),3,6,13(17),14-pentaene] | 100
4 | Cc1c2c(nn1CCN1CCC(F)C1)OCCC(C)Nc1nc(ncc1Cl)N2 (single isomer, unassigned) [E217, 14-Chloro-5-[2-(3-fluoropyrrolidin-1-yl)ethyl]-4,11-dimethyl-8-oxa-2,5,6,12,16,17-hexaazatricyclo [11.3.1.0^3,7] heptadeca-1(16),3,6,13(17),14-pentaene] | ≤ 10
5 | COC1CNc2nc(ncc2C(F)(F)F)Nc2c(nn(C3CCCOC3)c2C)OC1 (single isomer, unassigned) [E228, 10-Methoxy-4-methyl-5-(oxan-3-yl)-14-(trifluoromethyl)-8-oxa-2,5,6,12,16,17-hexaazatricyclo [11.3.1.0^3,7] heptadeca-1(17),3,6,13,15-pentaene] | ≤ 10
6 | Cc1c2c(nn1C1CCOCC1F)OCCCNc1nc(ncc1Cl)N2 (single isomer, unassigned) [E236, 14-Chloro-5-(3-fluorooxan-4-yl)-4-methyl-8-oxa-2,5,6,12,16,17-hexaazatricyclo[11.3.1.0^3,7]heptadeca-1(16),3,6,13 (17),14-pentaene] | ≤ 0.1
7 | Cc1c2c(nn1C1CC3CCC(C1)O3)OCCCNc1nc(ncc1Cl)N2 (single isomer, unassigned) [E244, 14-Chloro-4-methyl-5-{8-oxabicyclo[3.2.1]octan-3-yl}-8-oxa-2,5,6,12,16,17-hexaazatricyclo[11.3.1.0^3,7] heptadeca-1(16),3,6,13(17),14-pentaene] | ≤ 0.1
8 | COC1CNc2nc(ncc2Cl)Nc2c(nn(C3CC4CCC(C3)O4)c2C)OC1 (single isomer, unassigned) [E246, 14-Chloro-10-methoxy-4-methyl-5-{8-oxabicyclo[3.2.1]octan-3-yl}-8-oxa-2,5,6,12,16,17-hexaazatricyclo [11.3.1.0^3,7]heptadeca-1(16),3,6,13(17),14-pentaene] | ≤ 10
9 | Cc1c2c(nn1C1CC3CCC(C1)O3)OCCC(C)Nc1nc(ncc1Cl)N2 (single isomer, unassigned) [E250, 14-Chloro-4,11-dimethyl-5-{8-oxabicyclo[3.2.1]octan-3-yl}-8-oxa-2,5,6,12,16,17-hexaazatricyclo[11.3.1.0^3,7] heptadeca-1(16),3,6,13(17),14-pentaene] | ≤ 10
10 | Cc1c2c(nn1C1CC3CCC(C1)O3)OCCC(C)Nc1nc(ncc1Cl)N2 (single isomer, unassigned) [E251, 14-Chloro-4,11-dimethyl-5-{8-oxabicyclo[3.2.1]octan-3-yl}-8-oxa-2,5,6,12,16,17-hexaazatricyclo[11.3.1.0^3,7] heptadeca-1(16),3,6,13(17),14-pentaene] | ≤ 0.1
11 | Cc1c2c(nn1C1CCC(C)CC1)OCCCNc1nc(ncc1Cl)N2 (single isomer, unassigned) [E258, 14-Chloro-4-methyl-5-(4-methylcyclohexyl)-8-oxa-2,5,6,12,16,17-hexaazatricyclo[11.3.1.0^3,7]heptadeca-1(16),3,6,13 (17),14-pentaene] | ≤ 0.1
12 | Cc1c2c(nn1C1CCC(C)CC1)OCCC(C)Nc1nc(ncc1Cl)N2 (single isomer, unassigned) [E260, 14-Chloro-4,11-dimethyl-5-(4-methylcyclohexyl)-8-oxa-2,5,6,12,16,17-hexaazatricyclo[11.3.1.0^3,7] heptadeca-1(16),3,6,13(17),14-pentaene] | ≤ 0.1
13 | Cc1c2c(nn1C1CCC(C)CC1)OCCC(C)Nc1nc(ncc1Cl)N2 (single isomer, unassigned) [E261, 14-Chloro-4,11-dimethyl-5-(4-methylcyclohexyl)-8-oxa-2,5,6,12,16,17-hexaazatricyclo[11.3.1.0^3,7] heptadeca-1(16),3,6,13(17),14-pentaene] | ≤ 10
14 | Cc1c2c(nn1C1CCC(C)CC1)OCCC(C)Nc1nc(ncc1Cl)N2 (single isomer, unassigned) [E262, 14-Chloro-4,11-dimethyl-5-(4-methylcyclohexyl)-8-oxa-2,5,6,12,16,17-hexaazatricyclo[11.3.1.0^3,7] heptadeca-1(16),3,6,13(17),14-pentaene] | ≤ 10
15 | Cc1c2c(nn1CC(C)(C)O)OCCC(C)Nc1nc(ncc1Cl)N2 (single isomer, unassigned) [E264, 1-{14-Chloro-4,11-dimethyl-8-oxa-2,5,6,12,16,17-hexaazatricyclo[11.3.1.0^3,7]heptadeca-1(17),3,6,13,15-pentaen-5-yl}-2-methylpropan-2-ol] | ≤ 10
16 | COC1CNc2nc(ncc2Cl)Nc2c(nn(C3COC3)c2C)OC1 (single isomer, unassigned) [E271, 14-Chloro-10-methoxy-4-methyl-5-(oxetan-3-yl)-8-oxa-2,5,6,12,16,17-hexaazatricyclo[11.3.1.0^3,7]heptadeca-1(16),3,6,13(17),14-pentaene] | ≤ 10
17 | COC1CNc2nc(ncc2Cl)Nc2c(nn(CC3(C)COC3)c2C)OC1 (single isomer, unassigned) [E272, 14-Chloro-10-methoxy-4-methyl-5-[(3-methyloxetan-3-yl)methyl]-8-oxa-2,5,6,12,16,17-hexaazatricyclo [11.3.1.0^3,7]heptadeca-1(16),3,6,13(17),14-pentaene] | ≤ 0.1
18 | COC1CNc2nc(ncc2Cl)Nc2c(nn(CC3(C)COC3)c2C)OC1 (single isomer, unassigned) [E273, 14-Chloro-10-methoxy-4-methyl-5-[(3-methyloxetan-3-yl)methyl]-8-oxa-2,5,6,12,16,17-hexaazatricyclo [11.3.1.0^3,7]heptadeca-1(16),3,6,13(17),14-pentaene] | ≤ 10
19 | COC1CNc2nc(ncc2Cl)Nc2c(nn(CC3CCOCC3)c2C)OC1 (single isomer, unassigned) [E275, 14-Chloro-10-methoxy-4-methyl-5-(oxan-4-ylmethyl)-8-oxa-2,5,6,12,16,17-hexaazatricyclo[11.3.1.0^3,7] heptadeca-1(16),3,6,13(17),14-pentaene] | ≤ 10
20 | COC1CNc2nc(ncc2Cl)Nc2c(nn(C3CCC(C(F)(F)F)CC3)c2C)OC1 (single isomer, unassigned) [E279, 14-Chloro-10-methoxy-4-methyl-5-[4-(trifluoromethyl)cyclohexyl]-8-oxa-2,5,6,12,16,17-hexaazatricyclo [11.3. 1.0^3,7]heptadeca-1(16),3,6,13(17),14-pentaene] | ≤ 10
21 | Cc1c2c(nn1C1CCC(C(F)(F)F)CC1)OCCC(C)Nc1nc(ncc1Cl)N2 (single isomer, unassigned) [E280, 4-Chloro-4,11-dimethyl-5-[4-(trifluoromethyl)cyclohexyl]-8-oxa-2,5,6,12,16,17-hexaazatricyclo[11.3.1.0^3,7] heptadeca-1(16),3,6,13(17),14-pentaene] | ≤ 10
